Results on three molecules are retold here after patent US20200016088A1, “NANOFORMULATIONS OF NEUROPEPTIDES AND METHOD OF MAKING SAME” (THE CORPORATION OF MERCER UNIVERSITY, priority 2018, published 2020).

Series [1] has as its system macrophage (RAW 246.7) cell line. The experiment in a line: Cytotoxicity by MTT assay. The following applies: relative to negative control. It is filed as cell-based. The source says:
(See Examples 10 through 16 hereinbelow). As confirmed in past research, the nanoparticle formulations have shown to be both safe and non-toxic in non-human primates. In primates, all parameters related to liver toxicity (such as SGOT, SGPT) and kidney toxicity (such as serum creatinine, […]) were normal after repeated nanoparticulate administrations when compared to the control group. […] For confirmation of a potential innate inflammatory response, nitric oxide assays are an important tool. For the assay, dendritic cells are plated in a well plate and exposed to the formulation. After 16 hours, using reagents, a stronger color change indicates a higher production of nitric oxide by these antigen-presenting cells in response to the formulation's antigenicity. […] This indicates minimal if not negligible immunogenicity of the formulation. […] Likewise, cytotoxicity of blank nanoparticles was assessed by MTT (3-(4,5-Dimethylthiazol-2-yl)-2,5-diphenyltetrazolium bromide) assay in a macrophage (RAW 246.7) cell line.
The cytotoxicity of blank and peptide loaded nanoparticles was assessed by the MTT (3-(4,5-Dimethylthiazol-2-yl)-2,5-diphenyltetrazolium bromide) assay. […] Absorbance in each well was measured at 570 nm in a microtiter plate reader. The formation of a colored product quantified by measuring absorbance can be correlated to the percentage of living cells.
Background: Tetrazolium dyes change colour on reduction, which living cells bring about.

The nature of series [2]: OT in CSF and plasma by ELISA after intranasal administration. It is filed as in vivo, Swiss-Webster mice. The settings on record: 2 hours after intranasal administration, 50 ug OT. A general note: In an ELISA, binding on a coated surface is turned into a signal by an enzyme label.
Procedure: On sample collection days, animals were administered a 50 μl solution of OT alone or encapsulated in nanoparticles (containing 50 ug of OT) intranasally and placed in separate cages for 120 minutes.
CSF samples were collected from the cisterna magna as previously published by (Liu and Duff 2008) with little modifications. Briefly, the mice were anaesthetized with isoflurane and maintained under anesthesia at a flow rate of 1.5 ml/min during the surgical process. The mice were then placed prone in the stereotaxic instrument in direct contact with a heating pad with their heads firmly secured. The skin on the head and neck was shaved and the surgical site wiped with 10% povidone iodine followed by 70% ethanol. An incision was made and the muscles under the skin separated by blunt dissection under a dissecting microscope until the dura of the cisterna magna were exposed (a glistening white reverse triangle). The mice were then repositioned so the head formed a near 135° angle to the body. […]
All collected CSF and Plasma samples were treated identically and assayed at the same time with the same batch of reagents. […] The optical density was read immediately at 405 nm with correction at 570 nm using BioTek HT synergy spectrophotometer at 540 nm (Model S1AFR BioTek; Winooski, Vt.). The mean optical density of the blank wells was subtracted from all readings.
The conditions of series [3]: in vivo; cited from earlier work.
The conditions of series [4]: within one hour of intranasal delivery (Leng and Ludwig 2016); cited from earlier work.
In another series the test system is BEND3 cells. As to the kind of experiment: BBB transport across BEND3 cell barrier in Ussing chamber. The following applies: 1, 2, 3 and 4 hours. It is filed as in vitro ADME, mouse. The source says:
To generate a cellular model of the BBB, BEND3 cells were obtained from American Type Culture Collection (ATCC: 2299). BEND3 cells are endothelial cells that form tight barriers through the formation of transcellular tight junctions (Montesano et al. 1990; Sikorski et al. 1993; Williams et al. 1988), and these barriers mimic the barrier properties of the BBB (He et al. 2010; Watanabe et al. 2013). Their endothelial nature has been confirmed by the expression of von Willebrand factor and the uptake of fluorescently labeled low density lipoprotein. BEND3 cells were cultured in Dulbecco's Modified Eagle Medium (DMEM) supplemented with 15% FBS and 1% (100 U/ml Penicillin and 100 μg/ml Streptomycin). […]
To study the transport of nanoparticle formulations across the BEND3 BBB model barrier, a complete Ussing chamber system with a multichannel voltage-current clamp and the EasyMount Ussing chambers (Model VCC MC8; P2300; Physiologic Instruments Inc.; San Diego, Calif.) was used. […] To subtract the background resistance, a blank cell-culture insert was placed onto the slider and used to compensate for any fluid or blank membrane resistance by dialing off any reading to zero. […] Before the start of the experiment, all cell barrier preparations were evaluated for resistance properties and current flow using the acquire and analyze software. […]

As usually defined, the cell viability is a per cent measure of how many cells are alive, often set against a control.

As to benzalkonium chloride, the cell viability is 21.44% in series [1] (after 24 hours) and 20.089% in series [1] (after 48 hours).
Regarding `CC[C@H](C)[C@@H]1NC(=O)[C@H](Cc2ccc(O)cc2)NC(=O)[C@@H](N)CSSC[C@@H](C(=O)N2CCC[C@H]2C(=O)N[C@@H](CC(C)C)C(=O)NCC(N)=O)NC(=O)[C@H](CC(N)=O)NC(=O)[C@H](CCC(N)=O)NC1=O` [OT, oxytocin], in series [2], the “proportion of OT in CSF versus the total in CSF plus plasma” value worked out at 4.2%. Further, the “half-life in the blood” value in series [3] is “on the order of minutes”. The “calculated maximum transfer of a dose to the brain” value in series [4] is 0.005%.
For `Cc1cc(-c2ccc(/N=N/c3c(S(=O)(=O)O)cc4cc(S(=O)(=O)O)cc(N)c4c3O)c(C)c2)ccc1/N=N/c1c(S(=O)(=O)O)cc2cc(S(=O)(=O)O)cc(N)c2c1O` [trypan blue], the “transport across the barrier, presence versus absence of the cell barrier” value in the series with BEND3 cells is “significant reduction”.
